From ChEMBL document CHEMBL5120861, “Short peptide pharmacophores developed from protein phosphatase-1 disrupting peptides (PDPs)” (Bioorg Med Chem, 2022) come the findings set out here.

Where a SMILES comes first, the peptide text is derived from it. [ ]: non-standard residue; d: D form. 1Nal = N[C@@H](Cc1cccc2ccccc12)C(=O)O; 2Nal = N[C@@H](Cc1ccc2ccccc2c1)C(=O)O; NMeF = CN[C@@H](Cc1ccccc1)C(=O)O; hArg = N=C(N)NCCCC[C@H](N)C(=O)O; β3hR = N=C(N)NCCC[C@H](N)CC(=O)O; Cha = N[C@@H](CC1CCCCC1)C(=O)O; β3hK = NCCCC[C@H](N)CC(=O)O Bounds are passed on as bounds.

The assay is described as follows: Disruption of PP1 holoenzyme (unknown origin) interaction with protein inhibitor 2 assessed as increase in PP1 phosphatase activity by measuring increase in fluorescence using DiFMUP as substrate enzyme preincubated with I2 for ten mins followed by compound treatment for 20 mins followed by substrate addition by fluorescence based analysis. On the set-up: species or system Homo sapiens.
Broadly, the EC50 is the concentration that produces a half-maximal response. In the case of `CC(C)[C@@H](NC(=O)[C@H](NC(=O)[C@H](N)Cc1ccccc1)[C@H](C)O)C(=O)N[C@H](CCCNC(=N)N)C(=O)O` (H-[dF][dT][dV][dR]-OH), the EC50 is > 500 µM.

In the case of `CC(C)[C@@H](NC(=O)[C@@H](N)CCCNC(=N)N)C(=O)N[C@H](C(=O)N[C@@H](Cc1ccccc1)C(=O)O)[C@@H](C)O` (H-R[dV]TF-OH), the 50% effective concentration (EC50) is > 500 µM.

In the case of `CC(C)[C@H](NC(=O)[C@@H](N)CCCNC(=N)N)C(=O)N[C@@H](CC(N)=O)C(=O)N[C@@H](Cc1ccccc1)C(=O)O` (H-RVNF-OH), the EC50 stood at 220 µM.

Turning to `CC(C)[C@H](NC(=O)[C@H](CCCNC(=N)N)NC(=O)[C@@H](N)CCCCNC(=N)N)C(=O)N[C@@H](Cc1cnc[nH]1)C(=O)N[C@@H](Cc1ccccc1)C(N)=O` (H-[hArg]RVHF-NH2), the EC50 worked out at 6.6 µM.

On to H-KRVHF-OH, for which the EC50 is 1.5 µM.

On to `CC(C)[C@H](NC(=O)[C@@H](N)CCCNC(=N)N)C(=O)N[C@@H](CO)C(=O)N[C@@H](Cc1ccccc1)C(=O)O` (H-RVSF-OH), for which the EC50 was > 500 µM.

For `CC[C@H](C)[C@H](NC(=O)[C@@H](NC(=O)[C@H](CCC(=O)O)NC(=O)[C@H](C)NC(=O)[C@H](C)NC(=O)[C@H](CCC(=O)O)NC(=O)[C@H](Cc1ccc(C(=O)c2ccccc2)cc1)NC(=O)[C@H](Cc1ccccc1)NC(=O)[C@@H](NC(=O)[C@@H](NC(=O)[C@H](CCCNC(=N)N)NC(=O)[C@H](C)NC(=O)[C@H](CC(N)=O)NC(=O)[C@H](CCCCN)NC(=O)[C@H](CCCNC(=N)N)NC(=O)[C@H](CCCCN)NC(=O)[C@H](CCCNC(=N)N)NC(=O)[C@H](CCCCN)NC(=O)[C@@H]1CCCN1C(=O)[C@H](CCCNC(=N)N)NC(=O)[C@H](CCCCN)NC(=O)[C@H](CCCNC(=N)N)NC(=O)[C@H](CCCNC(=N)N)NC(C)=O)C(C)C)[C@H](C)O)[C@@H](C)CC)C(N)=O`, the EC50 turned out to be 0.233 µM.

In the case of `CC(C)[C@H](NC(=O)[C@@H](N)CCCNC(=N)N)C(=O)N[C@@H](Cc1cnc[nH]1)C(=O)N[C@@H](Cc1ccccc1)C(=O)O` (H-RVHF-OH), the concentration giving a half-maximal response (EC50) worked out at 69.7 µM.

Take `CC(=O)N[C@@H](CCCNC(=N)N)C(=O)N[C@H](C(=O)N[C@H](C(=O)N[C@@H](Cc1ccccc1)C(N)=O)[C@@H](C)O)C(C)C` (Ac-RVTF-NH2): the concentration for a half-maximal effect (EC50) is 85.7 µM.

`CC(C)[C@H](NC(=O)[C@@H](N)CCCNC(=N)N)C(=O)N[C@@H](C(=O)N[C@@H](Cc1ccccc1)C(=O)O)[C@H](C)O` (H-RV[dT]F-OH): the EC50 was > 500 µM.

In the case of `CC(C)[C@H](NC(=O)[C@H](N)CCCNC(=N)N)C(=O)N[C@H](C(=O)N[C@@H](Cc1ccccc1)C(=O)O)[C@@H](C)O` (H-[dR]VTF-OH), the EC50 was > 500 µM.

Regarding `CC(C)[C@H](NC(=O)[C@H](CCCNC(=N)N)NC(=O)C[C@@H](N)CCCCN)C(=O)N[C@@H](Cc1c[nH]cn1)C(=O)N[C@@H](Cc1ccccc1)C(N)=O` (H-[β3hK]RVHF-NH2), the EC50 is 9.8 µM.

Consider Ac-KRVHF-NH2, for which the EC50 was 1.7 µM.

With H-KHVHF-NH2, the EC50 was determined as 24.6 µM.

As to `CC(C)[C@H](NC(=O)[C@@H](N)CCCNC(=N)N)C(=O)N[C@H](C(=O)N[C@@H](Cc1ccc(O)cc1)C(=O)O)[C@@H](C)O` (H-RVTY-OH), the EC50 was > 500 µM.

As for `CC(C)[C@H](NC(=O)[C@H](CCCNC(=N)N)NC(=O)[C@@H](N)CCCCN)C(=O)N[C@@H](Cc1c[nH]cn1)C(=O)N(C)[C@@H](Cc1ccccc1)C(N)=O` (H-KRVH[NMeF]-NH2), the EC50 worked out at 23.5 µM.

Regarding `CC(C)[C@H](NC(=O)[C@@H](NC(=O)[C@@H](N)Cc1ccccc1)[C@@H](C)O)C(=O)N[C@@H](CCCNC(=N)N)C(=O)O` (H-FTVR-OH), the EC50 is > 500 µM.

Take `CC(C)[C@H](NC(=O)[C@@H](N)CCCNC(=N)N)C(=O)N[C@@H](Cc1ccccc1)C(=O)N[C@@H](Cc1ccccc1)C(=O)O` (H-RVFF-OH): the EC50 was > 500 µM.

Regarding `CC(C)[C@H](NC(=O)[C@@H](N)CCCNC(=N)N)C(=O)N[C@H](C(=O)N[C@@H](Cc1ccccc1)C(N)=O)[C@@H](C)O` (H-RVTF-NH2), the EC50 was 101 µM.

Turning to `CC(C)[C@H](NC(=O)[C@@H](N)CCCNC(=N)N)C(=O)N[C@@H](Cc1c[nH]c2ccccc12)C(=O)N[C@@H](Cc1ccccc1)C(=O)O` (H-RVWF-OH), the EC50 was 104 µM.

Regarding `CC(C)[C@H](NC(=O)[C@H](CCCNC(=N)N)NC(=O)[C@@H](N)CCCCN)C(=O)N[C@@H](Cc1cnc[nH]1)C(=O)N[C@@H](Cc1cccc2ccccc12)C(N)=O` (H-KRVH[1Nal]-NH2), the EC50 stood at 2.5 µM.

As for `CC(C)[C@H](NC(=O)[C@H](CCCNC(=N)N)NC(=O)[C@@H](N)CCCCN)C(=O)N[C@@H](Cc1cnc[nH]1)C(=O)N[C@@H](CC1CCCCC1)C(N)=O` (H-KRVH[Cha]-NH2), the EC50 is 52.5 µM.

For `CC(C)[C@@H](NC(=O)[C@H](N)CCCNC(=N)N)C(=O)N[C@@H](C(=O)N[C@@H](Cc1ccccc1)C(=O)O)[C@H](C)O` (H-[dR][dV][dT]F-OH), the EC50 is > 500 µM.

For the compound `CC(C)[C@H](NC(=O)[C@H](CCCNC(=N)N)NC(=O)[C@H](N)CCCCN)C(=O)N[C@@H](Cc1cnc[nH]1)C(=O)N[C@@H](Cc1ccccc1)C(N)=O`, the EC50 stood at 2.6 µM.

Consider `CC(C)[C@H](NC(=O)C[C@H](CCCNC(=N)N)NC(=O)[C@@H](N)CCCCN)C(=O)N[C@@H](Cc1c[nH]cn1)C(=O)N[C@@H](Cc1ccccc1)C(N)=O` (H-K[β3hR]VHF-NH2), for which the EC50 stood at 204 µM.

For Ac-KRVHF-OH, the EC50 was determined as 3.2 µM.

With `CC(C)[C@H](NC(=O)[C@H](N)CCCNC(=N)N)C(=O)N[C@H](C(=O)N[C@H](Cc1ccccc1)C(=O)O)[C@@H](C)O` (H-[dR]VT[dF]-OH), the EC50 was > 500 µM.

Take `CC(C)[C@H](NC(=O)[C@@H](N)CCCNC(=N)N)C(=O)N[C@H](C(=O)N[C@H](Cc1ccccc1)C(=O)O)[C@@H](C)O` (H-RVT[dF]-OH): the EC50 was > 500 µM.

Consider H-RRVHF-OH, for which the EC50 amounted to 2.7 µM.

For `CC(C)[C@H](NC(=O)[C@@H](N)CCCCN)C(=O)N[C@H](C(=O)N[C@@H](Cc1ccccc1)C(=O)O)[C@@H](C)O` (H-KVTF-OH), the EC50 was > 500 µM.

Regarding `CC(C)[C@H](NC(=O)[C@@H](N)CCCNC(=N)N)C(=O)N[C@H](C(=O)N[C@@H](Cc1ccccc1)C(=O)O)[C@@H](C)O` (H-RVTF-OH), the EC50 is 234 µM.

Consider `CC(C)[C@H](NC(=O)[C@@H](N)CCCNC(=N)N)C(=O)N[C@H](C(=O)N[C@@H](Cc1c[nH]c2ccccc12)C(=O)O)[C@@H](C)O` (H-RVTW-OH), for which the EC50 stood at 256 µM.

For `CC(C)[C@H](NC(=O)[C@@H](N)CCCNC(=N)N)C(=O)N[C@@H](CCCCN)C(=O)N[C@@H](Cc1ccccc1)C(=O)O` (H-RVKF-OH), the EC50 is 249 µM.

On to `CC(C)[C@H](NC(=O)[C@@H](N)CCCNC(=N)N)C(=O)N[C@@H](CCC(N)=O)C(=O)N[C@@H](Cc1ccccc1)C(=O)O` (H-RVQF-OH), for which the EC50 stood at 224 µM.

`CC(=O)N[C@@H](CCCNC(=N)N)C(=O)N[C@H](C(=O)N[C@H](C(=O)N[C@@H](Cc1ccccc1)C(=O)O)[C@@H](C)O)C(C)C` (Ac-RVTF-OH): the EC50 is > 500 µM.

On to `CC(C)[C@H](NC(=O)[C@H](CCCNC(=N)N)NC(=O)[C@@H](N)CCCCN)C(=O)N[C@@H](Cc1c[nH]cn1)C(=O)N[C@@H](Cc1ccc2ccccc2c1)C(N)=O` (H-KRVH[2Nal]-NH2), for which the EC50 turned out to be 1.5 µM.

With `CC(C)[C@H](NC(=O)[C@@H](N)CCCNC(=N)N)C(=O)N[C@@H](CC(=O)O)C(=O)N[C@@H](Cc1ccccc1)C(=O)O` (H-RVDF-OH), the EC50 was > 500 µM.
